Earlier results in US7265145B2, “Substituted piperidines and pyrrolidines as calcium sensing receptor modulators and method” (Bristol-Myers Squibb Company, priority 2003, dated 2007).

Columns and labels:
[1] = OVX rats; oral administration; in the presence of an anti-resorptive agent
[2] = intravenous bolus injection
[3] = postmenopausal women; placebo-controlled trial

Row | Compound | bone mass [1] | serum PTH [2] | reduce the risk of non-traumatic, non-spine fractures [3] [%] | reduce the risk of spine fractures [3] [%]
1 | CC(C)(Cc1ccc2ccccc2c1)NC[C@@H](O)COc1cccc(Cl)c1C#N [NPS-2143] | increase in bone mass | transient increase in serum PTH | – | –
2 | PTH peptide fragment (1-34): PTH peptide fragment (1-34) of parathyroid hormone, stimulator of bone formation (SVSEIQLMHNLGKHLNSMERVEWLRKKLQDVHNF; Parathyroid hormone; UniProt P01270 32-65, looked up, fragment) | – | – | 54 | 65
